The text below walks through data of patent US20260242366A1, “STING AGONISTS CONTAINING HYDRAZIDE, HYDRAZINE, AND HYDROXAMIC ACID FUNCTIONAL GROUPS” (BioNTech SE, priority 2023, published 2026).

Molecules are shown by their SMILES. Read-outs that look alike come from different tables or passages of the source.

Experiment [1] deals with STING signaling (IRF and NFKB-pathway activation) in THP1 Dual Cells. Description: THP-1 assay (THP1 Dual reporter cells, IRF / NFkB pathway activation). In kind it is cell-based. To be noted: Homo sapiens; THP1 Dual cells, 24 h incubation, IRF pathway; read-out: THP-1 EC50 (IRF). The method, then:
THP1 Dual Cells™, were purchased from Invivogen (Cat. thpd-nfis), and used to determine the biological activity of the compounds on a molecular level and to determine downstream activation of STING signaling (IRF and NFKB-pathway activation). Briefly, cultured cells were seeded on the day of the experiment with a density of 1×10^5 cells per well (96-well format in RPMI supplemented with 25 mM HEPES, 10% heat inactivated FCS,). A serial dilution of the compounds was prepared and added to the cells for a total incubation time of 24 hours. The test items were tested in 8 concentrations to determine a dose-dependent activation of the NFKB and the IRF pathway. After 24 h cells were centrifuged and supernatants harvested for the detection of secreted alkaline phosphatase (measured by QUANTI-Blue™ detection solution; Cat. rep-qbs Invivogen) or lucia luciferase (measured by QUANTI-Luc™ reagent; Cat. rep-qlc1, Invivogen), respectively. The read outs were be performed according to the manufacturer's instructions. EC50 values were calculated using GraphPad Prism 9.

Experiment [2] concerns PBMCs from healthy donors. Nature of the experiment: PBMC assay, dose-dependent cytokine induction. The format is cell-based. To be noted: Homo sapiens, 24 h. How it is done: Compounds I-A to IV were additionally tested on PBMCs from healthy donors to determine the dose-dependent cytokine induction. PBMCs from buffy coats were thawed on the day of the experiment and seeded with a density of 5×10^5 cells per well (96-well format, RPMI with 5% Human Serum+1% MEM Non-Essential Amino Acids+1% Sodium Pyruvate). In line with the experiment above, a serial dilution of the compounds was prepared and added to the cells for 24 hours. On the next days, cells were centrifuged and supernatants harvested for a cytokine readout based on a multiplex assay kit from mesoscale discovery (customized multiplex panel for the cytokines: IFNα2a, IFNβ, TNFα and IL6). Impact on cell viability was determined by CellTiter Glo2.0 from promega (Cat. G9241). Both experimental read outs were performed according to the manufacturer's instructions.

[3] abbreviates: IFNα in supernatant, read-out: PBMC EC50 (μM) for IFNα.
Setting [4] is: IFNβ in supernatant, read-out: PBMC EC50 (μM) for IFNβ.

By EC50 is commonly meant the concentration at which the effect is half-maximal. As to `CCn1nc(C)cc1C(=O)Nc1nc2cc(C(N)=O)cc(OC)c2n1C/C=C/Cn1c(NC(=O)c2cc(C)nn2CC)nc2cc(C(N)=O)cc(OCCCC(=O)N3CCN(N)CC3)c21` [I-K], the EC50 amounted to 9.74 nM in experiment [1], 0.302 µM in experiment [2] (setting [3]) and 0.234 µM in experiment [2] (setting [4]).

In the case of `CCn1nc(C)cc1C(=O)Nc1nc2cc(C(N)=O)cc(OC)c2n1C/C=C/Cn1c(NC(=O)c2cc(C)nn2CC)nc2cc(C(N)=O)cc(OCCCC(=O)NN)c21` [I-A], the values for the EC50 in experiment [2] (setting [3]) and in experiment [2] (setting [4]) were 0.334 µM and 1.25 µM, respectively.

As to `CCn1nc(C)cc1C(=O)Nc1nc2cc(C(N)=O)cc(OC)c2n1C/C=C/Cn1c(NC(=O)c2cc(C)nn2CC)nc2cc(C(N)=O)cc(OCCCC(=O)NNC)c21` [I-C], the EC50 in experiment [2] (setting [4]) is 1.1 µM.

With `CCn1nc(C)cc1C(=O)Nc1nc2cc(C(N)=O)cc(OC)c2n1C/C=C/Cn1c(NC(=O)c2cc(C)nn2CC)nc2cc(C(N)=O)cc(OCCCC(=O)NNCc3ccc(N)cc3)c21` [I-F], the EC50 in experiment [2] (setting [4]) was 0.209 µM.

On to `CCn1nc(C)cc1C(=O)Nc1nc2cc(C(N)=O)cc(OC)c2n1C/C=C/Cn1c(NC(=O)c2cc(C)nn2CC)nc2cc(C(N)=O)cc(OCCCC(=O)NO)c21` [I-G], for which the EC50 in experiment [2] (setting [3]) is 2.02 µM; in experiment [2] (setting [4]) it was 0.311 µM.

Regarding `CCn1nc(C)cc1C(=O)Nc1nc2cc(C(N)=O)cc(OC)c2n1C/C=C/Cn1c(NC(=O)c2cc(C)nn2CC)nc2cc(C(N)=O)cc(OCCCC(=O)N(C)O)c21` [I-H], the figures for the EC50 in experiment [2] (setting [3]) and in experiment [2] (setting [4]) were 0.665 µM and 0.249 µM, respectively.

`CCn1nc(C)cc1C(=O)Nc1nc2cc(C(N)=O)cc(OC)c2n1C/C=C/Cn1c(NC(=O)c2cc(C)nn2CC)nc2cc(C(N)=O)cc(OCCCC(=O)N(N)Cc3ccc(N)cc3)c21` [I-E]: the EC50 in experiment [2] (setting [3]) was 0.762 µM; in experiment [2] (setting [4]), 0.139 µM.

Turning to `CCn1nc(C)cc1C(=O)Nc1nc2cc(C(N)=O)cc(OC)c2n1C/C=C/Cn1c(NC(=O)c2cc(C)nn2CC)nc2cc(C(N)=O)cc(OCCCC(=O)N(N)CCN)c21` [I-J], the EC50 in experiment [1] turned out to be 23.4 nM; in experiment [2] (setting [3]) it was 0.321 µM; in experiment [2] (setting [4]), 0.293 µM.

Consider `CCn1nc(C)cc1C(=O)Nc1nc2cc(C(N)=O)cc(OC)c2n1C/C=C/Cn1c(NC(=O)c2cc(C)nn2CC)nc2cc(C(N)=O)cc(OCCCC(=O)N(C)N)c21` [I-B], for which, in experiment [2] (setting [4]), the EC50 came to 0.403 µM.

Regarding `CCn1nc(C)cc1C(=O)Nc1nc2cc(C(=O)NN)cc(OC)c2n1C/C=C/Cn1c(NC(=O)c2cc(C)nn2CC)nc2cc(C(N)=O)cc(OCCCN3CCOCC3)c21` [II-A], the figures for the EC50 in experiment [1], in experiment [2] (setting [3]) and in experiment [2] (setting [4]) were 84.9 nM, 0.875 µM and 0.403 µM, respectively.

On to `CCn1nc(C)cc1C(=O)Nc1nc2cc(C(N)=O)cc(OC)c2n1C/C=C/Cn1c(NC(=O)c2cc(C)nn2CC)nc2cc(C(N)=O)cc(OCCCC(=O)N(C)OC)c21` [I-I], for which the values for the EC50 in experiment [2] (setting [3]) and in experiment [2] (setting [4]) were 0.41 µM and 0.212 µM, respectively.

`CCn1nc(C)cc1C(=O)Nc1nc2cc(C(=O)N(C)N)cc(OC)c2n1C/C=C/Cn1c(NC(=O)c2cc(C)nn2CC)nc2cc(C(N)=O)cc(OCCCN3CCOCC3)c21` [II-C]: the figures for the EC50 in experiment [1], in experiment [2] (setting [3]) and in experiment [2] (setting [4]) were 267 nM, 1.15 µM and 0.91 µM, respectively.
